Consider 37 compounds from US20220117945A1, “ISOXAZOLE CARBOXAMIDE COMPOUNDS AND USES THEREOF” (NOVARTIS AG, priority 2017, published 2022).

Each structure is given as a SMILES string.

The subject of this assay is Atoh1 expression in mouse cerebellar neural precursor cells. The experiment in a line: Atoh1 induction assay in mouse cerebellar neural precursor cells (NPCs), Atoh1-GFP reporter. It counts as cell-based. The settings on record: 10 doses 50 μM to 200 nM, 72 hours treatment, DMSO control = 1, more than 5 considered significant, read-out: fold difference (maximum fold difference of GFP average intensity in cell nuclei over the DMSO control). The procedure:
Compounds of the present disclosure were assessed for their ability to increase the Atoh1 expression in mouse cerebellar neural precursor cells. The ability of compounds of the present disclosure to induce new hair cell formation was assessed in ex vivo hair cell induction assay using 6-day-postnatal mouse cochlea explants with hair cell damage.
Atoh1 Induction Assay in Mouse Cerebellar Neural Precursor Cells (NPCs)
Atoh1 induction assay was conducted with in vitro cultured cerebellar neural precursor cells isolated from neonatal transgenic Atoh1-GFP mice. Atoh1 expression is mainly regulated by the enhancer, and the nuclear GFP was driven by the cloned enhancer sequence at 3′ of Atoh1 which had high conservation among mammalians. So Atoh1 induction could be reflected by GFP activation in cerebellar neural precursor cells (Helms et al., Development 2000; 127: 1185-1196; Lumpkin et al., Gene Expression Patterns 2003; 3: 389-395). Postnatal 3 days pups were dissected for cerebellum tissue isolation. The cerebellum tissue was cut into small pieces, and dissociated with 0.05% Trypsin for about 10 minutes at 37° C., and then filtered with a 70 uM cell strainer. The cells were cultured as neuropsheres for the first 2 days in ultra-low attachment dish/well-plate with DMEM/F12+1% N2 &2% B27 with 1% P/S, 20 ng/ml rhFGF2 and 20 ng/ml rhEGF (R&D Systems). Then the spheres were plated to the matrigel (1:30 diluted in DMEM/F12)-coated tissue culture dish for monolayer culture. After 4.5-5.5 days culture in vitro (DIV), cells were dissociated with 0.05% trypsin into single cells, and frozen after cell number calculation.
The cerebellar neural precursor cells (NPCs) were re-thawed from stock and cultured for another 2 days before used for Atoh1 induction assay. On the first day of assay, NPCs were seeded into matrigel-coated 384 well plates (Black view-plate, PE) at 2500 cells/well. After over-night culture, the NPCs were treated with representative compounds of the present disclosure with 1:2 serial dilutions for 10 doses, from 50 μM to 200 nM, with DMSO as negative control. After 72 hours treatment without medium change, the cells were fixed with 4% formalin for staining. Assay plates were stained with GFP antibody (Abcam, #13970, 1:1000) to amplify endogenous GFP signal and then read by Cellomics.
On to `O=C(NCCCCCN1CC(C(=O)N[C@H]2C[C@@H](O)C2)C1)c1cc(-c2cccs2)on1` [Example 79, N-(5-(3-(((1,3-cis)-3-Hydroxycyclobutyl)carbamoyl)azetidin-1-yl)pentyl)-5-(thiophen-2-yl)isoxazole-3-carboxamide], for which the maximal fold induction is 26.6. As for `N#CC1CN(CCCCCNC(=O)c2cc(-c3ccc(F)cc3)on2)C1` [Example 64], the maximal fold induction worked out at 36.2. Consider `N#CCCNC(=O)C1CN(CCCCCNC(=O)c2cc(-c3cccs3)on2)C1` [Example 84, N-(5-(3-((2-Cyanoethyl)carbamoyl)azetidin-1-yl)pentyl)-5-(thiophen-2-yl)isoxazole-3-carboxamide], for which the maximal fold induction turned out to be 35.1.

With `N#CC1CN(CCCCCNC(=O)c2cc(-c3cccs3)on2)C1` [Example 35], the maximal fold induction worked out at 29.7.

For `N#CCNC(=O)C1CN(CCCCCNC(=O)c2cc(-c3cccs3)on2)C1` [Example 77, N-(5-(3-((Cyanomethyl)carbamoyl)azetidin-1-yl)pentyl)-5-(thiophen-2-yl)isoxazole-3-carboxamide], the maximal fold induction came out at 24.1. For `C[C@H]1CN(CCCCCNC(=O)c2cc(-c3cccs3)on2)C[C@H](C)O1` [Example 43], the maximal fold induction came out at 21.5. As to `CN1C[C@H]2C[C@@H]1CN2CCCCCNC(=O)c1cc(-c2cccs2)on1` [Example 60], the maximal fold induction amounted to 18.7. Next, `O=C(NCCCCCN1CCn2cncc2C1)c1cc(-c2cccs2)on1` [Example 94, N-(5-(5,6-dihydroimidazo[1,5-a]pyrazin-7(8H)-yl)pentyl)-5-(thiophen-2-yl)isoxazole-3-carboxamide]: 20.6; `N#CCCOC(=O)NC1CN(CCCCCNC(=O)c2cc(-c3cccs3)on2)C1` [Example 21, 2-Cyanoethyl (1-(5-(5-(thiophen-2-yl)isoxazole-3-carboxamido)pentyl)azetidin-3-yl)carbamate]: 13; `CS(=O)(=O)NC1CN(CCCCCNC(=O)c2cc(-c3ccc(F)cc3)on2)C1` [Example 22, 5-(4-Fluorophenyl)-N-(5-(3-(methylsulfonamido)azetidin-1-yl)pentyl)isoxazole-3-carboxamide]: 25.5. As to `C[C@@H]1CNCCN1CCCCCNC(=O)c1cc(-c2cccs2)on1` [Example 5, (R)—N-(5-(2-Methylpiperazin-1-yl)pentyl)-5-(thiophen-2-yl)isoxazole-3-carboxamide], the maximal fold induction worked out at 32.5.

For the compound `CN1CCN(CCC(F)(F)CCNC(=O)c2cc(-c3cccs3)on2)CC1` [Example 74, N-(3,3-Difluoro-5-(4-methylpiperazin-1-yl)pentyl)-5-(thiophen-2-yl)isoxazole-3-carboxamide], the maximal fold induction amounted to 19.4. On to `CN1CCN(CCCCCNC(=O)c2cc(-c3cccs3)on2)CC1=O` [Example 38], for which the maximal fold induction turned out to be 34.3.

As to `O=C(NCCCCCN1CC(C(=O)N[C@H]2C[C@@H](O)C2)C1)c1cc(-c2ccc(F)cc2)on1` [Example 92, 5-(4-Fluorophenyl)-N-(5-(3-(((1,3-cis)-3-hydroxycyclobutyl)carbamoyl)azetidin-1-yl)pentyl)isoxazole-3-carboxamide], the maximal fold induction turned out to be 13. Next, `N#CC1CCN(CCCCCNC(=O)c2cc(-c3cccs3)on2)C1` (stereo not shown) [Example 29]: 20.1. On to `CS(=O)(=O)C1CN(CCCCCNC(=O)c2cc(-c3cccs3)on2)C1` [Example 63], for which the maximal fold induction was found to be 19.8. For `CNC(=O)N1CCN(CCCCCNC(=O)c2cc(-c3cccs3)on2)CC1` [Example 25, N-(5-(4-(Methylcarbamoyl)piperazin-1-yl)pentyl)-5-(thiophen-2-yl)isoxazole-3-carboxamide] the value was 10.1; for `CN(C)C(=O)C1CN(CCCCCNC(=O)c2cc(-c3ccc(F)cc3)on2)C1` [Example 28], 28.6; for `CC(C)(C)OC(=O)N1CCN(CCCCCNC(=O)c2cc(-c3cccs3)on2)CC1` [Example 2, tert-Butyl 4-(5-(5-(thiophen-2-yl)isoxazole-3-carboxamido)pentyl)piperazine-1-carboxylate], 35.4. As to `O=C(NCCCCCN1CC(C(=O)N[C@H]2CCC[C@@H]2O)C1)c1cc(-c2ccc(F)cc2)on1` [Example 91, 5-(4-Fluorophenyl)-N-(5-(3-(((1S,2S)-2-hydroxycyclopentyl)carbamoyl)azetidin-1-yl)pentyl)isoxazole-3-carboxamide], the maximal fold induction came to 34.5. On to `CC(=O)NC1CN(CCCCCNC(=O)c2cc(-c3cccs3)on2)C1` [Example 16, N-(5-(3-Acetamidoazetidin-1-yl)pentyl)-5-(thiophen-2-yl)isoxazole-3-carboxamide], for which the maximal fold induction amounted to 25.3. On to `CN(C)C(=O)C1CN(CCCCCNC(=O)c2cc(-c3cccs3)on2)C1` [Example 46], for which the maximal fold induction is 18. For `O=C(NCCCCCN1CCN2CCCC2C1)c1cc(-c2cccs2)on1` (stereo not shown) [Example 41] the value was 21.9. For `O=C(NCCCCCN1CCC(O)CC1)c1cc(-c2cccs2)on1` [Example 39] the value was 20.5; for `NS(=O)(=O)C1CN(CCCCCNC(=O)c2cc(-c3ccc(F)cc3)on2)C1` [Example 70], 14; for `O=C(NCCCCCN1CC(C(=O)NC2CCC(O)C2)C1)c1cc(-c2cccs2)on1` (stereo not shown) [Example 82, N-(5-(3-((3-Hydroxycyclopentyl)carbamoyl)azetidin-1-yl)pentyl)-5-(thiophen-2-yl)isoxazole-3-carboxamide], 31.9. `NS(=O)(=O)C1CN(CCCCCNC(=O)c2cc(-c3cccs3)on2)C1` [Example 72, N-(5-(3-sulfamoylazetidin-1-yl)pentyl)-5-(thiophen-2-yl)isoxazole-3-carboxamide]: the maximal fold induction is 15.5. For `NC(=O)C1CN(CCC(F)(F)CCNC(=O)c2cc(-c3ccc(F)cc3)on2)C1` [Example 76, N-(5-(3-Carbamoylazetidin-1-yl)-3,3-difluoropentyl)-5-(4-fluorophenyl)isoxazole-3-carboxamide] the value was 20.4. For `O=C(NCCCCCN1CCC(F)C1)c1cc(-c2cccs2)on1` (stereo not shown) [Example 32] the value was 26.8; for `CN1CC2CCC(C1)N2CCCCCNC(=O)c1cc(-c2cccs2)on1` [Example 13, N-(5-(3-Methyl-3,8-diazabicyclo[3.2.1]octan-8-yl)pentyl)-5-(thiophen-2-yl)isoxazole-3-carboxamide], 23. For `CC(=O)C1CN(CCCCCNC(=O)c2cc(-c3cccs3)on2)C1` [Example 93, N-(5-(3-Acetylazetidin-1-yl)pentyl)-5-(thiophen-2-yl)isoxazole-3-carboxamide], the maximal fold induction was 12.4. In the case of `O=C(NCCCCCN1CC(c2ncc[nH]2)C1)c1cc(-c2ccc(F)cc2)on1` [Example 71], the maximal fold induction came out at 26.8. On to `CNC(=O)C1CN(CCCCCNC(=O)c2cc(-c3cccs3)on2)C1` [Example 61, N-(5-(3-(methylcarbamoyl)azetidin-1-yl)pentyl)-5-(thiophen-2-yl)isoxazole-3-carboxamide], for which the maximal fold induction turned out to be 33.7. For `O=C(NCCCCCN1CC(C(=O)NCCO)C1)c1cc(-c2ccc(F)cc2)on1` [Example 90, 5-(4-Fluorophenyl)-N-(5-(3-((2-hydroxyethyl)carbamoyl)azetidin-1-yl)pentyl)isoxazole-3-carboxamide] the value was 19.1; for `O=C(NCCCCCN1CC2(COC2)C1)c1cc(-c2cccs2)on1` [Example 34], 20.8. As to `CN1CCN(CCCCCNC(=O)c2cc(-c3ccc(F)s3)on2)CC1` [Example 73, 5-(5-Fluorothiophen-2-yl)-N-(5-(4-methylpiperazin-1-yl)pentyl)isoxazole-3-carboxamide], the maximal fold induction is 19.1. On to `O=C(NCCCCCN1CC(F)(F)C1)c1cc(-c2cccs2)on1` [Example 58], for which the maximal fold induction is 10.
